Assay results as given in patent publication US5391540A, “Substituted pyridine compounds” (Rohm and Haas Company, priority 1993, dated 1995).

Legend:
Format in all cases: in vivo
Indian Mustard = assay: Pre-emergent herbicidal activity (Table A); conditions: Brassica juncea, pre-emergence, Inmu, 11.2 kg/ha, 10-14 days, read-out: herbicidal rating (% inhibition)
How it was run: (§1)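 Compound incorporated into the cover-soil layer over sown seed at a rate equivalent to 11.2 kg/ha (acetone or water carrier). Greenhouse growth with watering as needed; ratings reflect percent inhibition per species, recorded around day 11 (range 10–14).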

Annual Bluegrass = assay: Pre-emergent herbicidal activity (Table A); conditions: pre-emergence, Anbg, 11.2 kg/ha, 10-14 days, read-out: herbicidal rating (% inhibition)
How it was run: as §1

Wild Buckwheat = assay: Pre-emergent herbicidal activity (Table A); conditions: Fallopia convolvulus, pre-emergence, Wibw, 11.2 kg/ha, 10-14 days, read-out: herbicidal rating (% inhibition)
How it was run: as §1

Seedling Johnsongrass = assay: Pre-emergent herbicidal activity (Table A); conditions: Sorghum halepense, pre-emergence, Sejg, 11.2 kg/ha, 10-14 days, read-out: herbicidal rating (% inhibition)
How it was run: as §1

Cotz = assay: plant injury after spraying emerged plants (Table D); parameters: scale not given here
Text: (§2) Topsoil (silt loam) is sieved through a screen having 1.27 cm openings. In some of the tests the soil was mixed with fertilizer (1225 g/cu. m of 12/5/9 containing isobutylidene diurea), while in other tests the fertilizer was omitted. This mixture is steam sterilized and then placed in aluminum pans 6.985 cm deep having ten holes in the bottom each 0.635 cm in diameter. The soil mixture is compacted to a depth of 1.27 cm. from the top of the pan. A predetermined number of seeds of each of several dicotyledonous and monocotyledonous annual plant species and/or vegetative propagules for the perennial plant species are placed on the soil and pressed into the soil surface. The seeds and/or vegetative propagules are covered with 1.27 cm of a mixture of 50% topsoil and 50% of a mixture of Canadian sphagnum peat moss, vermiculite and a wetting agent. The pans are then placed on a capillary mat on a greenhouse bench and subirrigated as needed. After the plants reach the desired stage (9 to 14 days, 1 to 3 true leaf stage), each pan (except the control pans) is removed to a spraying chamber and sprayed by means of an atomizer, operating at a spray pressure of 170.3 kPa ([…]) at the application rates noted in Table D. In the spray solution is an amount of an emulsifying agent mixture (35% butylamine salt of dodecylbenzenesulfonic acid and 65% tall oil condensed with ethylene oxide in the ratio of 11 mols of ethylene oxide/mol of tall oil) to give a spray solution or suspension. The spray solution or suspension contains a sufficient amount of the candidate chemical in order to give application rates of the active ingredient corresponding to those shown in Table D below while applying a total amount of solution or suspension equivalent to 1870 L/Ha (200 gallons/acre). The pans are returned to the greenhouse and watered as before and the injury to the plants as compared to the control pans is observed at approximately 10-14 days (usually 11 days).
(§3) In the following Table D the legends used to identify the plant species are the same as those used in the preceding Table B.

Rape = assay: as above; parameters: scale not given here
Text: as §2, §3

Jiwe = assay: as above; parameters: scale not given here
Text: as §2, §3

Hese = assay: as above; parameters: scale not given here
How it was run: (§4)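 Seeds or perennial propagules were pressed onto steam-sterilized sieved silt loam topsoil and covered with 1.27 cm of a 50:50 topsoil and peat moss/vermiculite/wetting agent mix. Pans were kept on a greenhouse bench over capillary mat and subirrigated as needed.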

Corn = assay: as above; parameters: scale not given here
How it was run: as §4

Wibw = assay: as above; parameters: scale not given here
How it was run: as §4

Cobu = assay: as above; parameters: scale not given here
How it was run: as §4

Vele = assay: as above; parameters: scale not given here
How it was run: as §4

SMILES | inhibition at 11200 g/ha (Indian Mustard) [%] | inhibition at 11200 g/ha (Annual Bluegrass) [%] | inhibition at 11200 g/ha (Wild Buckwheat) [%] | inhibition at 11200 g/ha (Seedling Johnsongrass) [%] | plant injury rating, Cotz (Cotz; 0.0701 kg/ha) | plant injury rating, Cotz (Cotz; 0.2803 kg/ha) | plant injury rating, Cotz (Cotz; 5.6050 kg/ha) | plant injury rating, Rape (Rape; 0.0701 kg/ha) | plant injury rating, Rape (Rape; 0.2803 kg/ha) | plant injury rating, Rape (Rape; 5.6050 kg/ha) | plant injury rating, Jiwe (Jiwe; 0.0701 kg/ha) | plant injury rating, Jiwe (Jiwe; 0.2803 kg/ha) | plant injury rating, Jiwe (Jiwe; 5.6050 kg/ha) | plant injury rating, Hese (Hese; 0.0701 kg/ha) | plant injury rating, Hese (Hese; 0.2803 kg/ha) | plant injury rating, Hese (Hese; 5.6050 kg/ha) | plant injury rating, Corn (Corn; 0.0701 kg/ha) | plant injury rating, Corn (Corn; 0.2803 kg/ha) | plant injury rating, Corn (Corn; 5.6050 kg/ha) | plant injury rating, Wibw (Wibw; 0.0701 kg/ha) | further results
COC(=O)c1c(OC)nc(C(F)(F)F)c(C(=O)NCCCBr)c1CC(C)C [Compound 97, 3-pyridinecarboxylic acid, 5-[[(3-bromopropyl)amino)carbonyl]-2-methoxy-4-(2-methylpropyl)-6-(trifluoromethyl)-, methyl ester] | 75 to 100 | 75 to 100 | 50 to 74 | 75 to 100 | 0 | 0 | 0 | 0 | 0 | 0 | 0 | 0 | 1 | 0 | 0 | 0 | 0 | 0 | 0 | 0 | plant injury rating, Cotz (Cotz; 1.1210 kg/ha): 0; plant injury rating, Rape (Rape; 1.1210 kg/ha): 0; plant injury rating, Jiwe (Jiwe; 1.1210 kg/ha): 0; plant injury rating, Hese (Hese; 1.1210 kg/ha): 0; plant injury rating, Corn (Corn; 1.1210 kg/ha): 0; plant injury rating, Wibw (Wibw; 0.2803 kg/ha): 0; plant injury rating, Wibw (Wibw; 1.1210 kg/ha): 0; plant injury rating, Wibw (Wibw; 5.6050 kg/ha): 0; plant injury rating, Cobu (Cobu; 0.0701 kg/ha): 0; plant injury rating, Cobu (Cobu; 0.2803 kg/ha): 0; plant injury rating, Cobu (Cobu; 1.1210 kg/ha): 0; plant injury rating, Cobu (Cobu; 5.6050 kg/ha): 0; plant injury rating, Vele (Vele; 0.0701 kg/ha): 0; plant injury rating, Vele (Vele; 0.2803 kg/ha): 0; plant injury rating, Vele (Vele; 1.1210 kg/ha): 0; plant injury rating, Vele (Vele; 5.6050 kg/ha): 0
COC(=O)c1c(OC)nc(C(F)(F)F)c(C2=NCCCS2)c1CC(C)C [Compound 98, 3-pyridinecarboxylic acid, 5-(5,6-dihydro-4H-1,3-thiazin-2-yl)-2-methoxy-4-(2-methylpropyl)-6-(trifluoromethyl)-, methyl ester] | 75 to 100 | 75 to 100 | 75 to 100 | 75 to 100 | 0 | 0 | 2 | 0 | 0 | 3 | 2 | 2 | 3 | 1 | 2 | 3 | 0 | 0 | 2 | 0 | plant injury rating, Cotz (Cotz; 1.1210 kg/ha): 1; plant injury rating, Rape (Rape; 1.1210 kg/ha): 1; plant injury rating, Jiwe (Jiwe; 1.1210 kg/ha): 3; plant injury rating, Hese (Hese; 1.1210 kg/ha): 2; plant injury rating, Corn (Corn; 1.1210 kg/ha): 0; plant injury rating, Wibw (Wibw; 0.2803 kg/ha): 0; plant injury rating, Wibw (Wibw; 1.1210 kg/ha): 1; plant injury rating, Wibw (Wibw; 5.6050 kg/ha): 3; plant injury rating, Cobu (Cobu; 0.0701 kg/ha): 0; plant injury rating, Cobu (Cobu; 0.2803 kg/ha): 1; plant injury rating, Cobu (Cobu; 1.1210 kg/ha): 1; plant injury rating, Cobu (Cobu; 5.6050 kg/ha): 2; plant injury rating, Vele (Vele; 0.0701 kg/ha): 1; plant injury rating, Vele (Vele; 0.2803 kg/ha): 2; plant injury rating, Vele (Vele; 1.1210 kg/ha): 2; plant injury rating, Vele (Vele; 5.6050 kg/ha): 3
COC(=O)c1c(OC)nc(C(F)(F)F)c(-c2nnc(C)o2)c1CC(C)C [Compound 103, 3-pyridinecarboxylic acid, 2-methoxy-5-(5-methy1-1,3,4-oxadiazo1-2-yl)-4-(2-methylpropyl)-6-(trifluoromethyl)-, methyl ester] | 75 to 100 | 75 to 100 | 75 to 100 | 75 to 100 | 0 | 0 | 0 | 0 | 0 | 3 | 0 | 0 | 2 | 0 | 0 | 3 | 0 | 0 | 3 | 0 | plant injury rating, Cotz (Cotz; 1.1219 kg/ha): 0; plant injury rating, Rape (Rape; 1.1219 kg/ha): 1; plant injury rating, Jiwe (Jiwe; 1.1219 kg/ha): 2; plant injury rating, Hese (Hese; 1.1219 kg/ha): 1; plant injury rating, Corn (Corn; 1.1219 kg/ha): 3; plant injury rating, Wibw (Wibw; 0.2803 kg/ha): 0; plant injury rating, Wibw (Wibw; 1.1219 kg/ha): 1; plant injury rating, Wibw (Wibw; 5.6050 kg/ha): 2; plant injury rating, Cobu (Cobu; 0.0701 kg/ha): 0; plant injury rating, Cobu (Cobu; 0.2803 kg/ha): 0; plant injury rating, Cobu (Cobu; 1.1219 kg/ha): 0; plant injury rating, Cobu (Cobu; 5.6050 kg/ha): 0; plant injury rating, Vele (Vele; 0.0701 kg/ha): 0; plant injury rating, Vele (Vele; 0.2803 kg/ha): 0; plant injury rating, Vele (Vele; 1.1219 kg/ha): 0; plant injury rating, Vele (Vele; 5.6050 kg/ha): 2
